These results are taken from patent US7834213B2, “Colorant compound and method of manufacturing the same as well as blue resist composition for use in color filter containing the same” (Canon Kabushiki Kaisha, priority 2005, dated 2010).

Each structure is given as a SMILES string.

Data set [1] is described as follows: Evaluation of solubility of colorant compounds to cyclohexanone. Format: physicochemical. Particulars: rank A/B/C.
The nature of data set [2]: Evaluation of spectral characteristics (UV visible absorption spectrum in cyclohexanone). Format: physicochemical. Particulars: for absorbance ratio: absorbance at largest absorption wavelength (500 to 650 nm) / absorbance at smallest absorption wavelength (400 to 500 nm), in cyclohexanone, room temperature; for λmax [nm]: absorption peak wavelength, dissolved in cyclohexanone, absorbance regulated to 2.0, room temperature. As to the method:
The colorant compounds represented by the formula (10) was dissolved in cyclohexanone and regulated so as to show an absorbance of 2.0. […] The absorption peak wavelength (λmax [nm]) was determined from the spectrum obtained by the observation. The spectral characteristics of the colorant compound were evaluated by the absorbance ratio of the largest absorption wavelength of the spectrum in the range of 500 to 650 nm to the smallest absorption wavelength of the spectrum in the range of 400 to 500 nm (the absorbance at the largest absorption wavelength/the absorbance at the smallest absorption wavelength).
While the lightness can be evaluated by means of the Y value of the XYZ standard […] system established by CIE (Commission Internationale de l'Eclairage), the lightness was evaluated by means of the absorbance ratio in this example because the Y value can vary remarkably when the hue is shifted slightly.

For `CCCCC(CC)CN(CC(CC)CCCC)S(=O)(=O)c1cccc(CN(CC)c2ccc(C(=C3C=CC(=[N+](CC)Cc4cccc(S(=O)(=O)N(CC(CC)CCCC)CC(CC)CCCC)c4)C=C3)c3ccccc3S(=O)(=O)[O-])cc2)c1` (centres unmarked) [compound (10)], the solubility entry in data set [1] was “A (The solubility to cyclohexanone is not lower than 10%.)”. In data set [2], the absorbance ratio was 433 and the “λmax [nm]” value came to 619 nm.
Turning to `CCCCNc1ccc(NCCCC)c2c1C(=O)c1ccccc1C2=O` [compound (28), C. I. Solvent Blue 35, reference compound], in data set [2], the absorbance ratio is on record as 77 and the “λmax [nm]” value came to 620 nm.
